From US9777045B2, “Immunogenic compositions and methods” (Longhorn Vaccines and Diagnostics, LLC, priority 2007, dated 2017)
“And” between values parts separate entries of the source, which are not always exact repeats. Equal entries are not always repeated. Where two headings read alike, the source gives them in different places.

How the values were obtained:
live H3N2 virus = type: in vivo, cotton rats (Sigmodon hispidus); conditions: cotton rats; 100 μg IM on day 0 and day 28, in CFA or in PBS; sera day 0, 28, 42
[1] = test system: peptide corresponding to the peptide-BSA conjugate used for injection; experiment: ELISA for anti-peptide antibodies (individual mouse sera 1:100); type: in vivo, mice; conditions: for Average Absorbance Values of sera for tested peptides, Day 14 / Average Absorbance Values of sera for tested peptides, Day 29 / Average Absorbance Values of sera for tested peptides, Day 42 / Average Absorbance Values of sera for tested peptides, Pre: group average; for Average Absorbance Values of sera for tested peptides, Day 14 / Average Absorbance Values of sera for tested peptides, Day 29 / Average Absorbance Values of sera for tested peptides, Day 42 / Average Absorbance Values of sera for tested peptides, Pre / Individual absorbancy values of sera for tested peptides, Day 14 / Individual absorbancy values of sera for tested peptides, Day 29 / Individual absorbancy values of sera for tested peptides, Day 42: mice; for Average Absorbance Values of sera for tested peptides, Pre / Individual absorbancy values of sera for tested peptides, Pre: pre-bleed; for Individual absorbancy values of sera for tested peptides, Pre: mice injected with peptide-BSA conjugate, absorbance 450 nm; for Individual absorbancy values of sera for tested peptides, Pre / Individual absorbancy values of sera for tested peptides, Day 14 / Individual absorbancy values of sera for tested peptides, Day 29 / Individual absorbancy values of sera for tested peptides, Day 42: sera 1:100
Description: Individual sera were tested at a final dilution of 1:100 (in PBS-T) on Nunc Maxisorp® plates coated with the peptide corresponding to the peptide-BSA conjugate used for injection, at a concentration of 1 μg/ml in PBS (100 μl/well). One hundred microliters of diluted sera were reacted on the coated plate for 30 to 60 min at room temperature, and unbound material was removed by washing three times with PBS-T. Anti-peptide antibodies were detected with peroxidase-labeled goat anti-mouse IgG (γ-specific), diluted 1:10000 in PBS-T (100 μl/well; Jackson ImmunoResearch Laboratories, Inc., West Grove, Pa., USA). Following 30-min incubation, the wells were washed five times with PBS-T to removed unbound material and 100 μl of substrate (TMB; Kirkegaard & Perry Laboratories, Inc., Gaithersburg, Md., USA) was added to each well. The reaction was allowed to proceed for 15 min in the dark and stopped by addition of 100 μl of TMB Stop Solution per well (Kirkegaard & Perry). Absorbance was determined at 450 nm.

[2] = test system: live Wuhan (Influenza A/Wuhan/359/95, H3N2); experiment: ELISA for anti-Wuhan antibodies (mouse sera 1:100); type: in vivo, mice; conditions: for Absorbance values for individual sera tested on influenzavirus strain Wuhan, Pre: pre-bleed; for Anti-Wuhan Absorbance Day 42 (group average) / Anti-Wuhan Absorbance Pre-Bleed (group average): averaged results
[3] = test system: IFN-γ induction in splenocytes; type: cell-based; conditions: mice immunized with peptide-BSA conjugates, 72 h in vitro treatment
[4] = test system: Influenza H1N1, H3N2, and H5N1; conditions: in vivo
[5] = mice, 5 μg per injection, sera 1:100
[6] = mice, 20 μg per injection, sera 1:100
[7] = sera 1:100, dose per inject 5 μg
[8] = sera 1:100, dose per inject 20 μg
[9] = sera 1:100, dose per injection 5 μg
[10] = sera 1:100, dose per injection 20 μg

Molecule | Average Absorbance Values of sera for tested peptides, Day 14 ([1]; 5 μg per injection) | Average Absorbance Values of sera for tested peptides, Day 29 ([1]; 5 μg per injection) | Average Absorbance Values of sera for tested peptides, Day 42 ([1]; 5 μg per injection) | Average Absorbance Values of sera for tested peptides, Pre ([1]; 5 μg per injection) | Average Absorbance Values of sera for tested peptides, Day 14 ([1]; 20 μg per injection) | Average Absorbance Values of sera for tested peptides, Day 29 ([1]; 20 μg per injection) | Average Absorbance Values of sera for tested peptides, Day 42 ([1]; 20 μg per injection) | Average Absorbance Values of sera for tested peptides, Pre ([1]; 20 μg per injection) | Individual absorbancy values of sera for tested peptides, Pre ([1]; 5 μg per injection) | Individual absorbancy values of sera for tested peptides, Pre ([1]; 20 μg per injection) | Individual absorbancy values of sera for tested peptides, Day 14 ([1]; 5 μg per injection) | Individual absorbancy values of sera for tested peptides, Day 29 ([1]; 5 μg per injection) | Individual absorbancy values of sera for tested peptides, Day 42 ([1]; 5 μg per injection) | Individual absorbancy values of sera for tested peptides, Day 14 ([1]; 20 μg per injection) | Individual absorbancy values of sera for tested peptides, Day 29 ([1]; 20 μg per injection) | Individual absorbancy values of sera for tested peptides, Day 42 ([1]; 20 μg per injection) | Absorbance values for individual sera tested on influenzavirus strain Wuhan, Pre [2, 5] | Absorbance values for individual sera tested on influenzavirus strain Wuhan, Pre [2, 6] | Anti-Wuhan Absorbance Day 42 (individual mice) [2, 7] | Anti-Wuhan Absorbance Pre-Bleed (individual mice) [2, 7] | other results
MSLLTEVETPIRNEWGCRCNDSSD [Peptide M2e, reference compound] | – | – | – | – | – | – | – | – | – | – | – | – | – | – | – | – | – | – | – | – | IgG titers to live H3N2 virus (ELISA) (live H3N2 virus): no particular advantage over small epitopic peptide fragments
DWSGYSGSFVQHPELTGL [Peptide 5912] | 0.162 | 0.325 | 0.693 | 0.130 | 0.130 | 0.123 | 0.155 | 0.100 | 0.090 and 0.094 and 0.107 and 0.156 | 0.100 and 0.098 and 0.090 and 0.123 | 0.287 and 0.109 and 0.230 and 0.147 | 0.175 and 0.137 and 0.700 and 0.138 | 0.154 (2×) and 0.167 and 1.758 | 0.091 and 0.082 and 0.103 and 0.088 | 0.098 and 0.146 and 0.099 and 0.096 | 0.155 and 0.189 and 0.168 and 0.111 | 0.063 and 0.060 and 0.062 and 0.083 | 0.077 and 0.084 and 0.057 and 0.086 | 0.086 and 0.100 and 0.527 and 0.090 | 0.063 and 0.060 and 0.062 and 0.083 | Anti-Wuhan Absorbance Day 42 (individual mice) [2, 8]: 0.132 and 0.431 and 0.093 and 0.068; Anti-Wuhan Absorbance Pre-Bleed (individual mice) [2, 8]: 0.077 and 0.084 and 0.057 and 0.086; Anti-Wuhan Absorbance Day 42 (group average) [2, 9]: 0.201; Anti-Wuhan Absorbance Pre-Bleed (group average) [2, 9]: 0.067; Anti-Wuhan Absorbance Day 42 (group average) [2, 10]: 0.181; Anti-Wuhan Absorbance Pre-Bleed (group average) [2, 10]: 0.076
GNLFIAP [Peptide 5910] | 0.113 | 0.140 | 0.318 | 0.154 | 0.102 | 0.202 | 0.237 | 0.083 | 0.100 and 0.110 and 0.097 and 0.308 | 0.081 and 0.083 (2×) and 0.087 | 0.089 and 0.090 and 0.086 and 0.186 | 0.099 and 0.226 and 0.085 and 0.149 | 0.123 and 0.306 and 0.680 and 0.162 | 0.104 and 0.081 and 0.078 and 0.144 | 0.296 and 0.077 and 0.133 and 0.302 | 0.279 and 0.164 and 0.175 and 0.333 | 0.076 and 0.092 and 0.068 and 0.109 | 0.069 and 0.070 and 0.071 and 0.092 | 0.449 and 0.341 and 0.288 and 0.088 | 0.076 and 0.092 and 0.068 and 0.109 | IFN-γ response of spleen cell supernatants (in words) [3]: strongest IFN-γ response; IFN-γ response of spleen cell supernatants (in words) ([3]; listed as GNLFIAP): good IFN-γ response; antibody responses that bound to native influenza (whole H3 virus), day 42 vs before ([2]; mice, conjugates at 5-μg and 20-μg doses): good antibody responses; Anti-Wuhan Absorbance Day 42 (individual mice) [2, 8]: 0.546 and 0.096 and 0.271 and 0.385; Anti-Wuhan Absorbance Pre-Bleed (individual mice) [2, 8]: 0.069 and 0.070 and 0.071 and 0.092; Anti-Wuhan Absorbance Day 42 (group average) [2, 9]: 0.291; Anti-Wuhan Absorbance Pre-Bleed (group average) [2, 9]: 0.086; Anti-Wuhan Absorbance Day 42 (group average) [2, 10]: 0.324; Anti-Wuhan Absorbance Pre-Bleed (group average) [2, 10]: 0.075
KSCINRCFYVELIRGR [Peptide 5914] | 0.128 | 0.181 | 0.284 | 0.126 | 0.174 | 0.171 | 0.411 | 0.146 | 0.110 and 0.133 and 0.136 and 0.126 | 0.165 (2×) and 0.133 and 0.123 | 0.117 and 0.123 and 0.156 and 0.118 | 0.248 and 0.136 and 0.219 and 0.121 | 0.388 and 0.264 and 0.357 and 0.127 | 0.213 and 0.150 and 0.153 and 0.180 | 0.175 and 0.214 and 0.141 and 0.156 | 0.284 and 0.480 and 0.646 and 0.234 | 0.062 and 0.059 and 0.090 and 0.083 | 0.099 and 0.132 and 0.068 and 0.080 | 0.176 and 0.329 and 0.239 and 0.096 | 0.062 and 0.059 and 0.090 and 0.083 | Absorbance values for individual sera tested on influenzavirus strain Wuhan, Day 42 ([2]; mice, 5 μg per injection, day 42, sera 1:100): 0.172; Anti-Wuhan Absorbance Day 42 (individual mice) [2, 8]: 0.156 and 0.408 and 0.296 and 0.182; Anti-Wuhan Absorbance Pre-Bleed (individual mice) [2, 8]: 0.099 and 0.132 and 0.068 and 0.080; Anti-Wuhan Absorbance Day 42 (group average) [2, 9]: 0.210; Anti-Wuhan Absorbance Pre-Bleed (group average) [2, 9]: 0.073; Anti-Wuhan Absorbance Day 42 (group average) [2, 10]: 0.260; Anti-Wuhan Absorbance Pre-Bleed (group average) [2, 10]: 0.094
HYEECSCYDWSGYSGSFVQHPELTGLHYEECSCYQYIKANSKFIGITE [Peptide 5908] | – | – | – | – | – | – | – | – | – | – | – | – | – | – | – | – | – | – | – | – | immune response against Influenza H1N1, H3N2, and H5N1 [4]: raised an immune response
GNLFIAPGNLFIAPHYEECSCYHYEECSCYQYIKANSKFIGITEHYEECSCYTPIRNETPIRNE (peptide) GNLFIAPGNLFIAPHYEECSCYHYEECSCYQYIKANSKFIGITEHYEECSCYTPIRNETPIRNE | – | – | – | – | – | – | – | – | – | – | – | – | – | – | – | – | – | – | – | – | immune response against Influenza H1N1, H3N2, and H5N1 [4]: raised an immune response
